According to patent publication US20240391931A1 (Bristol-Myers Squibb Company, priority 2021, published 2024):
pEC50, pIC50: −log10 of the molar value.

Key:
EGFR WT = target: T1, EGFR WT (Homo sapiens, UniProt P00533); experiment: Enzymatic assay EGFR WT (method c); type: biochemical; conditions: [EGFR WT]=2 nM, [ATP]=1 mM, [Peptide 22]=1 μM
T1 construct: purchased Thermo Fisher, Carlsbad, CA ERBB1 PR7295B
Method in brief: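 Initial rates over 0–3600 s, read as substrate-to-product conversion by capillary electrophoresis, were converted to percent inhibition and fitted with a variable-slope curve to give IC50. Conditions: EGFR WT 2 nM with 1 mM ATP; HER2 YVMA 5 nM or HER2 WT 12.5 nM, each with 25 μM ATP. All used 1 μM Peptide 22 in pH 7.5 HEPES/Mn/Mg buffer.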

[1] = target: T2, HER2 wildtype (WT) protein (Homo sapiens, UniProt P04626); experiment: HER2 signaling (pHER2 Tyr1248/total HER2 MSD) in BT474 cells; type: cell-based; conditions: 1.5 hr compound, 1% FBS
T2 construct: BT474 and N87 cell lines which endogenously overexpress the HER2 wildtype (WT) protein; endogenous in cells; host or cells: BT474, N87
Method in brief: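 BT474, N87 (HER2 WT) and NCI-H1781 (HER2 G776delinsVC) cells were treated for 1.5 h at 37° C in 1% FBS medium with compound at 0.0005–1.1 μM. pHER2 Tyr1248 was measured by MSD on whole-cell lysates and normalized to total HER2 as % DMSO. EC50 came from a variable-slope sigmoidal fit.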

T1 sequence (P00533 25-1210): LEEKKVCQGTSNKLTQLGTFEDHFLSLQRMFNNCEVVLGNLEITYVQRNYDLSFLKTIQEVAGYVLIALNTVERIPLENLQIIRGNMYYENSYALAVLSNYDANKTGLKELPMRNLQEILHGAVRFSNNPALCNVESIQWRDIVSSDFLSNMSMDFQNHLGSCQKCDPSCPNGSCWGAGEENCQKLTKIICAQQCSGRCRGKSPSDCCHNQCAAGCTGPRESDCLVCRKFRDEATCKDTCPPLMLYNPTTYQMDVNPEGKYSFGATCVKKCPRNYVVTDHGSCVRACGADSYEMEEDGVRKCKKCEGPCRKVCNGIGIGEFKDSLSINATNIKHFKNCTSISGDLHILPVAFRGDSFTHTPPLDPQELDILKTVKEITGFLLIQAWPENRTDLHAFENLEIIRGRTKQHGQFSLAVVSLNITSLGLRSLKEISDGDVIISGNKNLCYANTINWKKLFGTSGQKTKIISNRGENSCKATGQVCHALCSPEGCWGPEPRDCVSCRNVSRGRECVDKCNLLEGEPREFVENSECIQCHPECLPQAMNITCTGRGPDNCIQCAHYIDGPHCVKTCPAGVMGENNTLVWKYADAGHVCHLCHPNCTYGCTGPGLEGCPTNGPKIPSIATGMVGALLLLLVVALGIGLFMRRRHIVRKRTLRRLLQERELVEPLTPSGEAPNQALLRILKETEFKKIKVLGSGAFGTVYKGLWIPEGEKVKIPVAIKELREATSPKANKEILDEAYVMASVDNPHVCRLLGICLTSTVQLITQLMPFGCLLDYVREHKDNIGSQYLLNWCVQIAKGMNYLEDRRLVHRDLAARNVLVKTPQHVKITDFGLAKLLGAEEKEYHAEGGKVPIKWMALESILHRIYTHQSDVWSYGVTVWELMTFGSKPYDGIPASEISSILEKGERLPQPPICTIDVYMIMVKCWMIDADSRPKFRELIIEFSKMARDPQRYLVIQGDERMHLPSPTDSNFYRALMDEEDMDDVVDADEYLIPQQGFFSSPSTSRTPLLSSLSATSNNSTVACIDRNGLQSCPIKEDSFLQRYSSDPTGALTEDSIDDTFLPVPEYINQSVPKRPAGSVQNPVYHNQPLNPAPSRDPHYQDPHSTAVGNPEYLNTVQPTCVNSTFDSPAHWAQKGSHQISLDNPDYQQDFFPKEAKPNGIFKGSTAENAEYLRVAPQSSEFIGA
T2 sequence (P04626 23-1255): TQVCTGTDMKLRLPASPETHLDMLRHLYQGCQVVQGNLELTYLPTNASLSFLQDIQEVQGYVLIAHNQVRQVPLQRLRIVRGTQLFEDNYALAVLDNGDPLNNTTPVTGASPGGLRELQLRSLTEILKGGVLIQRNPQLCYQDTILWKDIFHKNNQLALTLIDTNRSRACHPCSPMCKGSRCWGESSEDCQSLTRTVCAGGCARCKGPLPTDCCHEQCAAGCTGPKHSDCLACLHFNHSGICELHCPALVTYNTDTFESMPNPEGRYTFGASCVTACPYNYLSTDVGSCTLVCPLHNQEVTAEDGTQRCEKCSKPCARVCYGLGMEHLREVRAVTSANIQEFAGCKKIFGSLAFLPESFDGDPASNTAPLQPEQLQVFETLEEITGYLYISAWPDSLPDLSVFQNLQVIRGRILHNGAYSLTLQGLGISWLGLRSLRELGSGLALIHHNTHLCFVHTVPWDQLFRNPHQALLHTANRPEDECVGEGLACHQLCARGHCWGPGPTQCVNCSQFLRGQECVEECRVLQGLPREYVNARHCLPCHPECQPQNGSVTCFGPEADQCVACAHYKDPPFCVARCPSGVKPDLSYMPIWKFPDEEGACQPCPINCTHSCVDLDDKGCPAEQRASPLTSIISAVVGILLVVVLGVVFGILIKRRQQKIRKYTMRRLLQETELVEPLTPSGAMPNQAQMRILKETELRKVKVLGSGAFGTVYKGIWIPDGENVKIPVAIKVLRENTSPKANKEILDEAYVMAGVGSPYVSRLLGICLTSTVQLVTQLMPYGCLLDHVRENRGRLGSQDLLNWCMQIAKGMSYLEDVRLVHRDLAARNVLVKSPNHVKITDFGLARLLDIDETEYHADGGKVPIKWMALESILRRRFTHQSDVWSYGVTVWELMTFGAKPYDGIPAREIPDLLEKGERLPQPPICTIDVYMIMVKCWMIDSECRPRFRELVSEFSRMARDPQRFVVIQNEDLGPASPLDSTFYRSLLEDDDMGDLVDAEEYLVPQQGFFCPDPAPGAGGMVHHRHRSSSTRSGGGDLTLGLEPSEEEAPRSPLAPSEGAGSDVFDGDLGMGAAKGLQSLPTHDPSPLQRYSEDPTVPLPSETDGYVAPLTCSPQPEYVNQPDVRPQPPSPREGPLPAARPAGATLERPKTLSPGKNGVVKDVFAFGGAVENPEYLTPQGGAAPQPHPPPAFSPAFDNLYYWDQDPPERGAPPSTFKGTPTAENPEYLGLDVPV

SMILES | pIC50 (EGFR WT) | pEC50 [1]
Cc1ccc(Oc2ccc(Nc3ncnc4sc5c(c34)C(C)CN(C(=O)C=CCN(C)C)C5)cc2C)cn1 (single isomer, unassigned) [Compound 105] | < 5.00 | > 7.00
Cc1ccc(Oc2ccc(Nc3ncnc4sc5c(c34)C(C)CN(C(=O)C=CCN(C)C)C5)cc2C)cn1 (single isomer, unassigned) [Compound 106] | < 5.00 | > 7.00
Cc1cc(Nc2ncnc3sc4c(c23)CCN(C(=O)/C=C/CN(C)C)C4)ccc1Oc1ccc2ncnn2c1 [Compound 3, (E)-1-(4-((4-([1,2,4]triazolo[1,5-a]pyridin-6-yloxy)-3-methylphenyl)amino)-5,8-dihydropyrido[4′,3′:4,5]thieno[2,3-d]pyrimidin-7(6H)-yl)-4-(dimethylamino)but-2-en-1-one] | 5.00 to 6.00 | > 7.00
C=CC(=O)N1CCc2c(sc3ncnc(Nc4ccc(Oc5ccc6ncnn6c5)c(Cl)c4)c23)C1 [Compound 4, 1-(4-((4-([1,2,4]triazolo[1,5-a]pyridin-6-yloxy)-3-chlorophenyl)amino)-5,8-dihydropyrido[4′,3′:4,5]thieno[2,3-d]pyrimidin-7(6H)-yl)prop-2-en-1-one] | < 5.00 | > 7.00
Cc1cc(Nc2ncnc3sc4c(c23)CCN(C(=O)/C=C/CN2CC3CCC(C3)C2)C4)ccc1Oc1ccc2ncnn2c1 [Compound 20] | 5.00 to 6.00 | > 7.00
Cc1ncc(Oc2ccc(Nc3ncnc4sc5c(c34)CCN(C(=O)/C=C/CN(C)C)C5)cc2C)cn1 [Compound 21, (E)-4-(dimethylamino)-1-(4-((3-methyl-4-((2-methylpyrimidin-5-yl)oxy)phenyl)amino)-5,8-dihydropyrido[4′,3′:4,5]thieno[2,3-d]pyrimidin-7(6H)-yl)but-2-en-1-one] | < 5.00 | > 7.00
Cc1cc(Nc2ncnc3sc4c(c23)CCN(C(=O)/C=C/CN(C)C)C4)ccc1Oc1ccc2cn[nH]c2c1 [Compound 23, (E)-1-(4-((4-((1H-indazol-6-yl)oxy)-3-methylphenyl)amino)-5,8-dihydropyrido[4′,3′:4,5]thieno[2,3-d]pyrimidin-7(6H)-yl)-4-(dimethylamino)but-2-en-1-one] | 5.00 to 6.00 | > 7.00
Cc1ccc(Oc2ccc(Nc3ncnc4sc5c(c34)CCN(C(=O)/C=C/CN3CC4CC3CO4)C5)cc2C)cn1 (centres unmarked) [Compound 26] | < 5.00 | > 7.00
Cc1ccc(Oc2ccc(Nc3ncnc4sc5c(c34)CCN(C(=O)/C=C/CN(C)C(C)(C)C)C5)cc2C)cn1 [Compound 33] | < 5.00 | > 7.00
Cc1ccc(Oc2ccc(Nc3ncnc4sc5c(c34)CCN(C(=O)/C=C/CN3CC4C(CO)C4C3)C5)cc2C)cn1 (centres unmarked) [Compound 34] | < 5.00 | > 7.00
Cc1ccc(Oc2ccc(Nc3ncnc4sc5c(c34)CCN(C(=O)/C=C/CNC3CC3)C5)cc2C)cn1 [Compound 40] | 5.00 to 6.00 | > 7.00
Cc1ccc(Oc2ccc(Nc3ncnc4sc5c(c34)CCN(C(=O)/C=C/CN3CCCC3C(N)=O)C5)cc2C)cn1 (centres unmarked) [Compound 41] | 5.00 to 6.00 | > 7.00
Cc1ccc(Oc2ccc(Nc3ncnc4sc5c(c34)CCN(C(=O)/C=C/CN3C4CCC3CC4)C5)cc2C)cn1 [Compound 44] | 5.00 to 6.00 | > 7.00
Cc1ccc(Oc2ccc(Nc3ncnc4sc5c(c34)CCN(C(=O)/C=C/CNCCS(C)(=O)=O)C5)cc2C)cn1 [Compound 45] | < 5.00 | > 7.00
Cc1ccc(Oc2ccc(Nc3ncnc4sc5c(c34)CCN(C(=O)/C=C/CNC3CCOC3)C5)cc2C)cn1 (centres unmarked) [Compound 47] | 5.00 to 6.00 | > 7.00
Cc1ccc(Oc2ccc(Nc3ncnc4sc5c(c34)CCN(C(=O)/C=C/CNCc3cc(C)n[nH]3)C5)cc2C)cn1 [Compound 49] | 5.00 to 6.00 | > 7.00
CC(=O)N1CCN(C/C=C/C(=O)N2CCc3c(sc4ncnc(Nc5ccc(Oc6ccc(C)nc6)c(C)c5)c34)C2)CC1 [Compound 51] | < 5.00 | 6.46 to 7.00
Cc1ccc(Oc2ccc(Nc3ncnc4sc5c(c34)CCN(C(=O)/C=C/CNCc3ccsc3)C5)cc2C)cn1 [Compound 52] | 5.00 to 6.00 | > 7.00
Cc1ccc(Oc2ccc(Nc3ncnc4sc5c(c34)CCN(C(=O)/C=C/CN3CC(O)C3)C5)cc2C)cn1 [Compound 53] | < 5.00 | > 7.00
Cc1ccc(Oc2ccc(Nc3ncnc4sc5c(c34)CCN(C(=O)/C=C/CN3CCN4C(=O)CCC4C3)C5)cc2C)cn1 (centres unmarked) [Compound 58] | < 5.00 | 6.46 to 7.00
COCCN1CCN(C/C=C/C(=O)N2CCc3c(sc4ncnc(Nc5ccc(Oc6ccc(C)nc6)c(C)c5)c34)C2)CC1 [Compound 59] | < 5.00 | > 7.00
Cc1cc(Nc2ncnc3sc4c(c23)CCN(C(=O)/C=C/CN(C)C)C4)ccc1Oc1cccc(B(O)O)c1 [Compound 64, (E)-(3-(4-((7-(4-(dimethylamino)but-2-enoyl)-5,6,7,8-tetrahydropyrido[4′,3′:4,5]thieno[2,3-d]pyrimidin-4-yl)amino)-2-methylphenoxy)phenyl)boronic acid] | 5.00 to 6.00 | > 7.00
Cc1ccc(Oc2ccc(Nc3ncnc4sc5c(c34)CCN(C(=O)/C=C/CN[C@H]3CC[C@H](OC4CC4)CC3)C5)cc2C)cn1 [Compound 68] | < 5.00 | > 7.00

The next lines start with the values.

pIC50 (EGFR WT) | pEC50 [1] | SMILES
< 5.00 | > 7.00 | CN(C)C/C=C/C(=O)N1CCc2c(sc3ncnc(Nc4ccc(Oc5ccc6ncnn6c5)c(Cl)c4)c23)C1 [Compound 5, (E)-1-(4-((4-([1,2,4]triazolo[1,5-a]pyridin-6-yloxy)-3-chlorophenyl)amino)-5,8-dihydropyrido[4′,3′:4,5]thieno[2,3-d]pyrimidin-7(6H)-yl)-4-(dimethylamino)but-2-en-1-one]
5.00 to 6.00 | > 7.00 | Cc1cc(Nc2ncnc3sc4c(c23)CCN(C(=O)/C=C/CN(C)C)C4)ccc1Oc1ccc2[nH]ncc2c1 [Compound 22, (E)-1-(4-((4-((1H-indazol-5-yl)oxy)-3-methylphenyl)amino)-5,8-dihydropyrido[4′,3′:4,5]thieno[2,3-d]pyrimidin-7(6H)-yl)-4-(dimethylamino)but-2-en-1-one]
5.00 to 6.00 | > 7.00 | Cc1ccc(Oc2ccc(Nc3ncnc4sc5c(c34)CCN(C(=O)/C=C/CN(CCO)CCO)C5)cc2C)cn1 [Compound 37]
< 5.00 | > 7.00 | Cc1ccc(Oc2ccc(Nc3ncnc4sc5c(c34)CCN(C(=O)/C=C/CNC3COC3)C5)cc2C)cn1 [Compound 38]
< 5.00 | 6.46 to 7.00 | CNC(=O)CNC/C=C/C(=O)N1CCc2c(sc3ncnc(Nc4ccc(Oc5ccc(C)nc5)c(C)c4)c23)C1 [Compound 39]
< 5.00 | > 7.00 | Cc1ccc(Oc2ccc(Nc3ncnc4sc5c(c34)CCN(C(=O)/C=C/CN3CCCOCC3)C5)cc2C)cn1 [Compound 42]
< 5.00 | 6.00 to 6.46 | Cc1ccc(Oc2ccc(Nc3ncnc4sc5c(c34)CCN(C(=O)/C=C/CN3CC(O)CO3)C5)cc2C)cn1 (centres unmarked) [Compound 43]
< 5.00 | > 7.00 | CCN1CCN(C/C=C/C(=O)N2CCc3c(sc4ncnc(Nc5ccc(Oc6ccc(C)nc6)c(C)c5)c34)C2)CC1 [Compound 46]
< 5.00 | > 7.00 | Cc1ccc(Oc2ccc(Nc3ncnc4sc5c(c34)CCN(C(=O)/C=C/CNCC3CN(C)CCO3)C5)cc2C)cn1 (centres unmarked) [Compound 48]
< 5.00 | > 7.00 | Cc1ccc(Oc2ccc(Nc3ncnc4sc5c(c34)CCN(C(=O)/C=C/CNC3CCC3)C5)cc2C)cn1 [Compound 54]
< 5.00 | > 7.00 | Cc1ccc(Oc2ccc(Nc3ncnc4sc5c(c34)CCN(C(=O)/C=C/CN3CC=CCC3)C5)cc2C)cn1 [Compound 55]
< 5.00 | 6.00 to 6.46 | CON(C)C/C=C/C(=O)N1CCc2c(sc3ncnc(Nc4ccc(Oc5ccc(C)nc5)c(C)c4)c23)C1 [Compound 56]
< 5.00 | > 7.00 | Cc1ccc(Oc2ccc(Nc3ncnc4sc5c(c34)CCN(C(=O)/C=C/CN3CC4(C3)CS(=O)(=O)C4)C5)cc2C)cn1 [Compound 57]
< 5.00 | 6.00 to 6.46 | Cc1ccc(Oc2ccc(Nc3ncnc4sc5c(c34)CCN(C(=O)/C=C/CN3CCn4cc(C(F)(F)F)nc4C3)C5)cc2C)cn1 [Compound 61]
< 5.00 | > 7.00 | Cc1ccc(Oc2ccc(Nc3ncnc4sc5c(c34)CCN(C(=O)/C=C/CN3CCC(n4ccnc4)CC3)C5)cc2C)cn1 [Compound 62]
5.00 to 6.00 | > 7.00 | Cc1ccc(Oc2ccc(Nc3ncnc4sc5c(c34)CCN(C(=O)/C=C/CNCCO)C5)cc2C)cn1 [Compound 65]
< 5.00 | > 7.00 | Cc1ccc(Oc2ccc(Nc3ncnc4sc5c(c34)CCN(C(=O)/C=C/CN3C[C@H]4CC[C@@H](C3)O4)C5)cc2C)cn1 [Compound 66]
< 5.00 | > 7.00 | Cc1ccc(Oc2ccc(Nc3ncnc4sc5c(c34)CCN(C(=O)/C=C/CN3CCC4(CCOC4)C3)C5)cc2C)cn1 (centres unmarked) [Compound 67]
5.00 to 6.00 | > 7.00 | Cc1ccc(Oc2ccc(Nc3ncnc4sc5c(c34)CCN(C(=O)/C=C/CN[C@H]3CC[C@H](OC(F)F)CC3)C5)cc2C)cn1 [Compound 69]
5.00 to 6.00 | > 7.00 | Cc1ccc(Oc2ccc(Nc3ncnc4sc5c(c34)CCN(C(=O)/C=C/CN[C@H]3CC[C@H](OCC(F)(F)F)CC3)C5)cc2C)cn1 [Compound 70]
